For series [1], the system named is P. falciparum male gametocytes. Put plainly: P. falciparum Dual Gamete Formation Assay (PfDGFA), male readout (exflagellation). As to conditions: for Selectivity Ratio M: HepG2 Tox50 versus male IC50. The class given is cell-based, Plasmodium falciparum NF54. The essentials:
(§1)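 Day-14 NF54 gametocytes were incubated with compound for 24 h at 37°C under 1% O2/3% CO2/96% N2. Gametogenesis was triggered with ookinete medium (0.1 μM xanthurenic acid) plus Cy3-anti-Pfs25, and exflagellation was imaged by brightfield after cooling to 4°C then 28°C. Females were imaged by Pfs25 fluorescence 24 h later at 28°C.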

For series [2], the system named is P. falciparum female gametocytes. Put plainly: P. falciparum Dual Gamete Formation Assay (PfDGFA), female readout (Pfs25-positive female gametes). The class given is cell-based, Plasmodium falciparum NF54. As to conditions: for Selectivity ratio F: HepG2 Tox50 versus female IC50. The method in brief:
as §1

The test system of series [3] is HepG2 cells. Put plainly: HepG2 cytotoxicity counter-screen. As to conditions: for Mean TOX: mean of the HepG2 TOX50 values; for DGFA Tox50 HepG2: HepG2 value reported with the DGFA screen; for Tox50: cytotoxic activity against HepG2 cells.
[4] abbreviates: this study, read-out: Pf DGFA IC50 MALE.
[5] abbreviates: this study, read-out: Pf DGFA IC50 FEM.
[6] abbreviates: 2µM, 24h preincubation with gametocytes, average of replicates.
The mark [7] stands for this setting: 2µM, 24h preincubation with gametocytes, replicate R1.
Setting [8] is: 2µM, 24h preincubation with gametocytes, replicate R3.
The mark [9] stands for this setting: 2µM, 24h preincubation with gametocytes, replicate R4.
[10] abbreviates: Plasmodium falciparum, 2µM, 24h preincubation with gametocytes, average of replicates, read-out: Average inhibition male (%).
Setting [11] is: Plasmodium falciparum, 2µM, 24h preincubation with gametocytes, replicate R1, read-out: % inhibition male (individual replicates) R1.
Where [12] appears, read: Plasmodium falciparum, 2µM, 24h preincubation with gametocytes, replicate R2, read-out: % inhibition male (individual replicates) R2.
The mark [13] stands for this setting: Plasmodium falciparum, 2µM, 24h preincubation with gametocytes, replicate R3, read-out: % inhibition male (individual replicates) R3.
Where [14] appears, read: Plasmodium falciparum, 2µM, 24h preincubation with gametocytes, replicate R4, read-out: % inhibition male (individual replicates) R4.
Setting [15] is: Plasmodium falciparum, PfDGFA, 24 h incubation with gametocytes before induction, exflagellation readout, read-out: Male IC50.
Where [16] appears, read: Plasmodium falciparum, 2µM, 24h preincubation with gametocytes, average of replicates, read-out: Average inhibition female (%).
The mark [17] stands for this setting: Plasmodium falciparum, 2µM, 24h preincubation with gametocytes, replicate R1, read-out: % inhibition female (individual replicates) R1.
The mark [18] stands for this setting: Plasmodium falciparum, 2µM, 24h preincubation with gametocytes, replicate R2, read-out: % inhibition female (individual replicates) R2.
Where [19] appears, read: Plasmodium falciparum, 2µM, 24h preincubation with gametocytes, replicate R3, read-out: % inhibition female (individual replicates) R3.
Setting [20] is: Plasmodium falciparum, 2µM, 24h preincubation with gametocytes, replicate R4, read-out: % inhibition female (individual replicates) R4.
Where [21] appears, read: Plasmodium falciparum, PfDGFA, 24 h incubation with gametocytes before induction, female gamete readout, read-out: Female IC50.

Each structure is given as a SMILES string. Like-named read-outs stand apart in the source and are kept apart here.

Regarding `CCn1c(-c2nonc2N)nc2c(-c3ccccc3)ncc(OCCCNCCCN3CCOCC3)c21.O=C(O)C(F)(F)F` [TC62], the “Cytotox ratio Pf Male” value in series [1] turned out to be 11.8. The IC50 in series [1] (setting [4]) turned out to be 1.37 µM; in series [2] (setting [5]) it was 6.49 µM. Besides, the “Cytotox ratio Pf Female” value in series [2] amounted to 2.5. Besides, the “Mean TOX” value in series [3] came to 16.12 µM.
Turning to `COCCn1c(Sc2ncnc3sccc23)nc2ccccc21` [TC65], in series [1], the “Cytotox ratio Pf Male” value was 81.3. In series [1] (setting [4]), the IC50 stood at 1.23 µM. Besides, in series [2], the “Cytotox ratio Pf Female” value was 94.3. Besides, the IC50 in series [2] (setting [5]) worked out at 1.06 µM. Also, in series [3], the “DGFA Tox50 HepG2” value was 100 µM and the “Mean TOX” value is 100.00 µM.
Regarding `CS(=O)(=O)Cc1ccc(Nc2ncc(Cl)c(Nc3cccnc3C(N)=O)n2)cc1.Cl` [TC68], the “Cytotox ratio Pf Male” value in series [1] was 16.0. For the same compound, the IC50 in series [1] (setting [4]) stood at 6.25 µM. In series [2], the “Cytotox ratio Pf Female” value was 10.0. In addition, in series [3], the “DGFA Tox50 HepG2” value was determined as 100 µM and the “Mean TOX” value was determined as 100.00 µM.
With `Cl.O=C1Nc2ccc3ncccc3c2/C1=C/Nc1ccc(N2CCN(CCO)CC2)cc1` [TC71], the “Cytotox ratio Pf Male” value in series [1] was 225.8. In addition, the IC50 in series [1] (setting [4]) was found to be 0.15 µM. Further, the “Cytotox ratio Pf Female” value in series [2] is 3.4. In addition, the “Mean TOX” value in series [3] was 33.87 µM.
Regarding `CN(C)c1ccnc2ccc(NC(=O)Nc3ccnc4ccccc34)cc12` [TC74], the “Cytotox ratio Pf Male” value in series [1] stood at 13.3. The results for the IC50 in series [1] (setting [4]) and in series [2] (setting [5]) were 1.7 µM and 5.92 µM, respectively. The “Cytotox ratio Pf Female” value in series [2] was found to be 3.8. Besides, the “Mean TOX” value in series [3] is listed as 22.68 µM.
Taken in the same sequence, the figures for `CC(CO)(CO)NCc1cc2c3ccccc3c(CNC(C)(CO)CO)cc2c2ccccc12.CS(=O)(=O)O` [TC76] were 15.0, 0.87 µM, 4.79 µM, 2.7 and 13.04 µM.
Consider `CNC(=S)NN=C(C)c1ccccn1` [TCMDC-123475], for which, in series [1] (setting [6]), the “Average inhibition male (%)” value was determined as 95.4%. In addition, in series [1] (setting [7]), the “% inhibition male (individual replicates) R1” value is recorded as 96.5%. For the same compound, the “% inhibition male (individual replicates) R3” value in series [1] (setting [8]) stood at 96.2%. Also, in series [1] (setting [9]), the “% inhibition male (individual replicates) R4” value stood at 91.6%. For the same compound, the “Selectivity Ratio M” value in series [1] stood at 0.29. Besides, the IC50 in series [1] (PfDGFA, 24 h incubation with gametocytes before induction, exflagellation readout, read-out: Male IC50) was 0.45 µM; in series [2] (PfDGFA, 24 h incubation with gametocytes before induction, female gamete readout, read-out: Female IC50), 0.27 µM. In addition, in series [2] (setting [6]), the “Average inhibition female (%)” value was 52.8%. Moreover, the “% inhibition female (individual replicates) R1” value in series [2] (setting [7]) is recorded as 38.7%. Also, the “% inhibition female (individual replicates) R3” value in series [2] (setting [8]) is 43.6%. Also, in series [2] (setting [9]), the “% inhibition female (individual replicates) R4” value is reported as 50.7%. Also, in series [2], the “Selectivity ratio F” value turned out to be 0.49. The Tox50 in series [3] was 0.13 µM.
For the compound `O=C1SC(=Cc2ccc(O)c(O)c2)C(=O)N1c1ccccc1` [TCMDC-123491], the “Selectivity Ratio M” value in series [1] is reported as 21.44. In addition, in series [1] (Mean TOX HepG2 over DGFA IC50 MALE, GREEN = >10-fold, RED = <10-fold), the “Cytotox ratio Pf Male” value was determined as 21.4. Besides, the inhibition at 2 µM turned out to be 96.8% in series [1] (setting [10]); 96% in series [1] (setting [11]); 93.5% in series [1] (setting [12]); 98.6% in series [1] (setting [13]); 98.9% in series [1] (setting [14]); 28.5% in series [2] (setting [16]). Besides, the inhibition at 2 µM is 24.6% in series [2] (setting [17]), 17.5% in series [2] (setting [18]), 26.8% in series [2] (setting [19]) and 45.3% in series [2] (setting [20]). Further, the IC50 came to 1.72 µM in series [1] (setting [15]) and 8.43 µM in series [2] (setting [21]). In series [2], the “Selectivity ratio F” value came out at 4.36. For the same compound, in series [2] (Mean TOX HepG2 over DGFA IC50 FEM, GREEN = >10-fold, RED = <10-fold), the “Cytotox ratio Pf Female” value was found to be 4.4. The same compound displayed a Tox50 in series [3] of 36.79 µM. Also, in series [3], the “Mean TOX” value is listed as 36.79 µM.
For `COc1ccc(C[C@H](N)C(=O)N[C@H]2[C@@H](O)[C@H](n3cnc4c(N(C)C)ncnc43)O[C@@H]2CO)cc1` [TCMDC-123493], the “Selectivity Ratio M” value in series [1] came to 3.72. Besides, the inhibition at 2 µM in series [1] (Plasmodium falciparum, PfDGFA at 2µM, 24h preincubation with gametocytes, average of replicates, read-out: Average inhibition male (%)) turned out to be 76.8%; in series [1] (Plasmodium falciparum, PfDGFA at 2µM, 24h preincubation with gametocytes, replicate R1, read-out: % inhibition male (individual replicates) R1), 75.8%; in series [1] (Plasmodium falciparum, PfDGFA at 2µM, 24h preincubation with gametocytes, replicate R2, read-out: % inhibition male (individual replicates) R2) it was 91.9%; in series [1] (Plasmodium falciparum, PfDGFA at 2µM, 24h preincubation with gametocytes, replicate R3, read-out: % inhibition male (individual replicates) R3), 54%; in series [1] (Plasmodium falciparum, PfDGFA at 2µM, 24h preincubation with gametocytes, replicate R4, read-out: % inhibition male (individual replicates) R4) it was 85.6%; in series [2] (Plasmodium falciparum, PfDGFA at 2µM, 24h preincubation with gametocytes, average of replicates, read-out: Average inhibition female (%)) it was 37.8%. Moreover, the inhibition at 2 µM in series [2] (Plasmodium falciparum, PfDGFA at 2µM, 24h preincubation with gametocytes, replicate R1, read-out: % inhibition female (individual replicates) R1) worked out at 41.5%; in series [2] (Plasmodium falciparum, PfDGFA at 2µM, 24h preincubation with gametocytes, replicate R2, read-out: % inhibition female (individual replicates) R2) it was 55%; in series [2] (Plasmodium falciparum, PfDGFA at 2µM, 24h preincubation with gametocytes, replicate R3, read-out: % inhibition female (individual replicates) R3), 20.7%; in series [2] (Plasmodium falciparum, PfDGFA at 2µM, 24h preincubation with gametocytes, replicate R4, read-out: % inhibition female (individual replicates) R4), 33.9%. Besides, the results for the IC50 in series [1] (setting [15]) and in series [2] (setting [21]) were 0.91 µM and 5.14 µM, respectively. In series [1] (number of replicates with >50% inhibition in the male readout, 2µM), this compound had a HitlevelM of 4. In addition, the “Selectivity ratio F” value in series [2] came to 0.66. Moreover, the HitlevelF in series [2] (number of replicates with >50% inhibition in the female readout, 2µM) amounted to 1. This compound registered a Tox50 in series [3] of 3.39 µM.
`CN(C)CCCn1c(N)c(-c2nc3ccccc3[nH]2)c2nc(C#N)c(C#N)nc21` [TCMDC-123729]: the “Selectivity Ratio M” value in series [1] turned out to be 16. The inhibition at 2 µM amounted to 100% in series [1] (setting [10]); 96.8% in series [1] (setting [11]); 102% in series [1] (setting [12]); 97.3% in series [1] (setting [13]); 104% in series [1] (setting [14]); 94.8% in series [2] (setting [16]). Besides, the inhibition at 2 µM in series [2] (setting [17]) stood at 95.1%; in series [2] (setting [18]), 89.6%; in series [2] (setting [19]) it was 99.5%; in series [2] (setting [20]), 95.1%. The IC50 worked out at 0.51 µM in series [1] (setting [15]) and 1.47 µM in series [2] (setting [21]). For the same compound, the “Selectivity ratio F” value in series [2] is listed as 5.55. In addition, the Tox50 in series [3] amounted to 8.13 µM.
`C=CCNc1cc(-c2ccccn2)nc(-c2ccccn2)n1` [TCMDC-123787]: in series [1], the “Selectivity Ratio M” value was determined as 13.76. Moreover, the inhibition at 2 µM in series [1] (setting [10]) was found to be 94.8%; in series [1] (setting [11]), 93.1%; in series [1] (setting [12]), 94.1%; in series [1] (setting [13]), 97.8%; in series [1] (setting [14]) it was 94.1%; in series [2] (setting [16]), 33.1%. Also, the inhibition at 2 µM came out at 29.8% in series [2] (setting [17]), 30% in series [2] (setting [18]), 14.9% in series [2] (setting [19]) and 57.6% in series [2] (setting [20]). For the same compound, the IC50 worked out at 0.91 µM in series [1] (setting [15]) and 4.89 µM in series [2] (setting [21]). Moreover, the “Selectivity ratio F” value in series [2] stood at 2.57. Moreover, the Tox50 in series [3] was 12.58 µM.

As a reminder, the IC50 is the concentration that inhibits the measured activity by half. What is called inhibition is the drop in the measured response relative to a control, in per cent.

Source of the values: publication PMC10584170, “Machine learning-based phenotypic imaging to characterise the targetable biology of Plasmodium falciparum male gametocytes for the development of transmission-blocking antimalarials” (PLOS Pathogens, 2023).
